In one assay the test system is CD8+ T cells. Briefly: In vitro T-cell priming with aAPCs loaded with peptide/MHC complexes and anti-CD28 antibody, pMHC multimer readout. The class given is cell-based, human. The following applies: HLA-A*02 restricted peptides; positive wells among evaluable; healthy donors. An excerpt:
In order to obtain information regarding the immunogenicity of the TUMAPs of the present invention, the inventors performed investigations using an in vitro T-cell priming assay based on repeated stimulations of CD8+ T cells with artificial antigen presenting cells (aAPCs) loaded with peptide/MHC complexes and anti-CD28 antibody.
In order to perform in vitro stimulations by artificial antigen presenting cells loaded with peptide-MHC complex (pMHC) and anti-CD28 antibody, the inventors first isolated CD8+ T cells from fresh HLA-A*02 leukapheresis products via positive selection using CD8 microbeads (Miltenyi Biotec, Bergisch-Gladbach, Germany) of healthy donors obtained from the University clinics Mannheim, Germany, after informed consent.
PBMCs and isolated CD8+ lymphocytes were incubated in T-cell medium (TCM) until use consisting of RPMI-Glutamax (Invitrogen, Karlsruhe, Germany) supplemented with 10% heat inactivated human AB serum (PAN-Biotech, Aidenbach, Germany), 100 U/ml Penicillin/100 μg/ml Streptomycin (Cambrex, Cologne, Germany), 1 mM sodium pyruvate (CC Pro, Oberdorla, Germany), 20 μg/ml Gentamycin (Cambrex). 2.5 ng/ml IL-7 (PromoCell, Heidelberg, Germany) and 10 U/ml IL-2 (Novartis Pharma, Nürnberg, Germany) were also added to the TCM at this step.
Generation of pMHC/anti-CD28 coated beads, T-cell stimulations and readout was performed in a highly defined in vitro system using four different pMHC molecules per stimulation condition and 8 different pMHC molecules per readout condition.
The purified co-stimulatory mouse IgG2a anti human CD28 Ab 9.3 (Jung et al., 1987) was chemically biotinylated using Sulfo-N-hydroxysuccinimidobiotin as recommended by the manufacturer (Perbio, Bonn, Germany). Beads used were 5.6 μm diameter streptavidin coated polystyrene particles (Bangs Laboratories, Illinois, USA).
800.000 beads/200 μl were coated in 96-well plates in the presence of 4×12.5 ng different biotin-pMHC, washed and 600 ng biotin anti-CD28 were added subsequently in a volume of 200 μl. Stimulations were initiated in 96-well plates by co-incubating 1×10^6 CD8+ T cells with 2×10^5 washed coated beads in 200 μl TCM supplemented with 5 ng/ml IL-12 (PromoCell) for 3 days at 37° C. Half of the medium was then exchanged by fresh TCM supplemented with 80 U/ml IL-2 and incubating was continued for 4 days at 37° C.
This stimulation cycle was performed for a total of three times. For the pMHC multimer readout using 8 different pMHC molecules per condition, a two-dimensional combinatorial coding approach was used as previously described (Andersen et al., 2012) with minor modifications encompassing coupling to 5 different fluorochromes. Finally, multimeric analyses were performed by staining the cells with Live/dead near IR dye (Invitrogen, Karlsruhe, Germany), CD8-FITC antibody clone SK1 (BD, Heidelberg, Germany) and fluorescent pMHC multimers. For analysis, a BD LSRII SORP cytometer equipped with appropriate lasers and filters was used. Peptide specific cells were calculated as percentage of total CD8+ cells. Evaluation of multimeric analysis was done using the FlowJo software (Tree Star, Oregon, USA). In vitro priming of specific multimer+ CD8+ lymphocytes was detected by comparing to negative control stimulations.

A further assay concerns the target HLA-A*02:01 (Homo sapiens, UniProt P04439, D140Y/D185E/D98H/E176V/E277Q/G131W/G231S/I119V/I121R/I166T/I218V/L300P/L318F/N151K/N90K/P208A/P217A/Q86G/Q94H/R138H/R169H/T345S). Briefly: MHC binding assay: UV-ligand exchange with β2m ELISA. The conditions noted are these: binding to HLA-A*02:01. An excerpt:
Candidate peptides for T cell based therapies according to the present invention were further tested for their MHC binding capacity (affinity). The individual peptide-MHC complexes were produced by UV-ligand exchange, where a UV-sensitive peptide is cleaved upon UV-irradiation, and exchanged with the peptide of interest as analyzed. Only peptide candidates that can effectively bind and stabilize the peptide-receptive MHC molecules prevent dissociation of the MHC complexes. To determine the yield of the exchange reaction, an ELISA was performed based on the detection of the light chain (β2m) of stabilized MHC complexes. The assay was performed as generally described in Rodenko et al. (Rodenko et al., 2006).
96 well MAXISorp plates (NUNC) were coated over night with 2 ug/ml streptavidin in PBS at room temperature, washed 4× and blocked for 1 h at 37° C. in 2% BSA containing blocking buffer. Refolded HLA-A*02:01/MLA-001 monomers served as standards, covering the range of 15-500 ng/ml. Peptide-MHC monomers of the UV-exchange reaction were diluted 100-fold in blocking buffer. Samples were incubated for 1 h at 37° C., washed four times, incubated with 2 ug/ml HRP conjugated anti-β2m for 1 h at 37° C., washed again and detected with TMB solution that is stopped with […]. Absorption was measured at 450 nm. Candidate peptides that show a high exchange yield (preferably higher than 50%, most preferred higher than 75%) are generally preferred for a generation and production of antibodies or fragments thereof, and/or T cell receptors or fragments thereof, as they show sufficient avidity to the MHC molecules and prevent dissociation of the MHC complexes.

In the case of “ALAGSSPQV (listed as Homo sapiens) [SEQ ID NO: 2]”, the “Wells positive [%] (in vitro immunogenicity)” value with CD8+ T cells is given as ““++” (20%-49% = ++)”. Besides, the “Peptide Exchange (MHC class I binding score, peptide exchange yield)” value in the assay with HLA-A*02:01 is listed as ““+++” (≥50 = +++)”.

The record behind these values is US10064929B2, “Peptides and combination of peptides for use in immunotherapy against breast cancer and other cancers” (immatics biotechnologies GmbH, priority 2015, dated 2018).
